In BindingDB's records for doi:10.1016/j.ejmech.2015.10.042 (China Pharmaceutical University, 2016):
pEC50: −log10 of the molar value.

Assay: Agonist activity at vitamin D3 receptor in human HL-60 cells assessed as induction of cell differentiation after 96 hrs by NBT dye-based microscopic analysis

Compared with `CCC(CC)(c1ccc(OCC(=O)C(C)(C)C)c(C)c1)c1ccc(OCC(=O)C(C)(C)C)c(C)c1` [LG190155], `C#CCNC(=O)c1ccc(C(CC)(CC)c2ccc(OCC(=O)C(C)(C)C)c(C)c2)n1CC` is 0.57 log units lower in pEC50: 6.23 for the first, 5.66 for the second. The first is the more potent here.

First: CCn1c(C(=O)NCCN(C)C)ccc1C(CC)(CC)c1ccc(OCC(O)C(C)(C)C)c(C)c1 (stereo unspecified)
Second: CCn1c(C(=O)NCCCN(C)C)ccc1C(CC)(CC)c1ccc(OCC(O)C(C)(C)C)c(C)c1 (stereo unspecified)
The pEC50 of the first is 0.42 log units higher: 7.85 for the first, 7.43 for the second. The first is the more potent here.

Compared with `CCn1c(C(=O)NCCN)ccc1C(CC)(CC)c1ccc(OCC(=O)C(C)(C)C)c(C)c1`, `CCn1c(C(=O)NCCBr)ccc1C(CC)(CC)c1ccc(OCC(=O)C(C)(C)C)c(C)c1` is 1.20 log units lower in pEC50: 6.92 for the first, 5.72 for the second. The first is the more potent here.

Going from `CCOc1ccc(NC(=O)c2ccc(C(CC)(CC)c3ccc(OCC(O)C(C)(C)C)c(C)c3)n2CC)cc1` (stereo unspecified) to `CCOc1ccc(NC(=O)c2ccc(C(CC)(CC)c3ccc(OCC(=O)C(C)(C)C)c(C)c3)n2CC)cc1`, the pEC50 falls from 6.20 to less than 4.30.

Compared with `CCn1c(C(=O)N(C)CCC#N)ccc1C(CC)(CC)c1ccc(OCC(O)C(C)(C)C)c(C)c1` (stereo unspecified), `CCn1c(C(=O)N(C)CCC#N)ccc1C(CC)(CC)c1ccc(OCC(=O)C(C)(C)C)c(C)c1` is 0.70 log units lower in pEC50: 5.71 for the first, 5.01 for the second. The first is the more potent here.

First: CCN(CC)CCCNC(=O)c1ccc(C(CC)(CC)c2ccc(OCC(O)C(C)(C)C)c(C)c2)n1CC (stereo unspecified)
Second: CCN(CC)CCNC(=O)c1ccc(C(CC)(CC)c2ccc(OCC(O)C(C)(C)C)c(C)c2)n1CC (stereo unspecified)
The pEC50 of the first is 0.22 log units higher: 7.18 for the first, 6.96 for the second.

First: CCn1c(C(=O)N(C)CC(=O)O)ccc1C(CC)(CC)c1ccc(OCC(=O)C(C)(C)C)c(C)c1
Second: CCOC(=O)CN(C)C(=O)c1ccc(C(CC)(CC)c2ccc(OCC(=O)C(C)(C)C)c(C)c2)n1CC
The pEC50 of the first is higher: 5.86 for the first, less than 4.30 for the second.

`CCn1c(C(=O)OCc2ccccn2)ccc1C(CC)(CC)c1ccc(OCC(O)C(C)(C)C)c(C)c1` (stereo unspecified) and `CCn1c(C(=O)OCc2ccccn2)ccc1C(CC)(CC)c1ccc(OCC(=O)C(C)(C)C)c(C)c1` cannot be ordered by pEC50: less than 4.30 for the first, less than 4.30 for the second.

Going from `CCn1c(C(=O)N(C)CC(=O)O)ccc1C(CC)(CC)c1ccc(OCC(O)C(C)(C)C)c(C)c1` (stereo unspecified) to `CCOC(=O)CN(C)C(=O)c1ccc(C(CC)(CC)c2ccc(OCC(O)C(C)(C)C)c(C)c2)n1CC` (stereo unspecified), the pEC50 rises from 6.13 to 6.68 (0.55 log units). The second is the more potent here.

First: CCn1c(C(=O)N(C)c2ccccc2)ccc1C(CC)(CC)c1ccc(OCC(O)C(C)(C)C)c(C)c1 (stereo unspecified)
Second: CCn1c(C(=O)N(C)c2ccccc2)ccc1C(CC)(CC)c1ccc(OCC(=O)C(C)(C)C)c(C)c1
The pEC50 of the first is 0.46 log units higher: 5.19 for the first, 4.73 for the second. The first is the more potent here.

Going from `C#CCCOC(=O)c1ccc(C(CC)(CC)c2ccc(OCC(=O)C(C)(C)C)c(C)c2)n1CC` to `C#CCCOC(=O)c1ccc(C(CC)(CC)c2ccc(OCC(O)C(C)(C)C)c(C)c2)n1CC` (stereo unspecified), the pEC50 rises from 4.54 to 5.99 (1.45 log units).

Compared with `CCn1c(C(=O)OC(C)CCO)ccc1C(CC)(CC)c1ccc(OCC(=O)C(C)(C)C)c(C)c1` (stereo unspecified), `CCOC(=O)CC(C)OC(=O)c1ccc(C(CC)(CC)c2ccc(OCC(=O)C(C)(C)C)c(C)c2)n1CC` (stereo unspecified) is lower in pEC50: 6.42 for the first, less than 4.30 for the second.

First: CCn1c(C(=O)OCc2ccc(F)cc2)ccc1C(CC)(CC)c1ccc(OCC(=O)C(C)(C)C)c(C)c1
Second: CCn1c(C(=O)OCc2ccc(F)cc2)ccc1C(CC)(CC)c1ccc(OCC(O)C(C)(C)C)c(C)c1 (stereo unspecified)
The pEC50 of the first is higher: 5.02 for the first, less than 4.30 for the second. The first is the more potent here.

Going from `CC[C@@H](C)[C@H](NC(=O)c1ccc(C(CC)(CC)c2ccc(OCC(O)C(C)(C)C)c(C)c2)n1CC)C(=O)O` (stereo partly specified) to `CC[C@@H](C)[C@H](NC(=O)c1ccc(C(CC)(CC)c2ccc(OCC(O)C(C)(C)C)c(C)c2)n1CC)C(=O)OC` (stereo partly specified), the pEC50 falls from 8.64 to 7.59 (1.05 log units).

Compared with `CCn1c(C(=O)Oc2ccc(CCO)cc2)ccc1C(CC)(CC)c1ccc(OCC(O)C(C)(C)C)c(C)c1` (stereo unspecified), `CCOC(=O)c1ccc(OC(=O)c2ccc(C(CC)(CC)c3ccc(OCC(O)C(C)(C)C)c(C)c3)n2CC)cc1` (stereo unspecified) is lower in pEC50: 5.29 for the first, less than 4.30 for the second.

First: CCn1c(C(=O)NCCN)ccc1C(CC)(CC)c1ccc(OCC(O)C(C)(C)C)c(C)c1 (stereo unspecified)
Second: CCn1c(C(=O)NCCBr)ccc1C(CC)(CC)c1ccc(OCC(O)C(C)(C)C)c(C)c1 (stereo unspecified)
The pEC50 of the first is 1.11 log units higher: 8.00 for the first, 6.89 for the second.

First: CCOC(=O)c1ccc(OC(=O)c2ccc(C(CC)(CC)c3ccc(OCC(=O)C(C)(C)C)c(C)c3)n2CC)cc1
Second: CCn1c(C(=O)Oc2ccc(CC(=O)OC)cc2)ccc1C(CC)(CC)c1ccc(OCC(=O)C(C)(C)C)c(C)c1
The pEC50 of the first is 1.29 log units lower: 4.34 for the first, 5.63 for the second. The second is the more potent here.

`CCn1c(C(=O)Nc2ccc(OC(F)(F)F)cc2)ccc1C(CC)(CC)c1ccc(OCC(O)C(C)(C)C)c(C)c1` (stereo unspecified) and `CCn1c(C(=O)Nc2ccc(OC(F)(F)F)cc2)ccc1C(CC)(CC)c1ccc(OCC(=O)C(C)(C)C)c(C)c1` cannot be ordered by pEC50: less than 4.30 for the first, less than 4.30 for the second.

Going from `CCn1c(C(=O)N(CCC#N)CCC#N)ccc1C(CC)(CC)c1ccc(OCC(=O)C(C)(C)C)c(C)c1` to `CCn1c(C(=O)N(CCC#N)CCC#N)ccc1C(CC)(CC)c1ccc(OCC(O)C(C)(C)C)c(C)c1` (stereo unspecified), the pEC50 rises from 6.06 to 7.01 (0.95 log units).

Compared with `C=CCN(C)C(=O)c1ccc(C(CC)(CC)c2ccc(OCC(=O)C(C)(C)C)c(C)c2)n1CC`, `C=CCN(C)C(=O)c1ccc(C(CC)(CC)c2ccc(OCC(O)C(C)(C)C)c(C)c2)n1CC` (stereo unspecified) is 0.73 log units higher in pEC50: 4.67 for the first, 5.40 for the second.

Going from `CCn1c(C(=O)N[C@@H](C)CO)ccc1C(CC)(CC)c1ccc(OCC(O)C(C)(C)C)c(C)c1` (stereo partly specified) to `C#CCNC(=O)c1ccc(C(CC)(CC)c2ccc(OCC(O)C(C)(C)C)c(C)c2)n1CC` (stereo unspecified), the pEC50 falls from 8.07 to 6.62 (1.45 log units). The first is the more potent here.

Compared with `CCN(CC)CCNC(=O)c1ccc(C(CC)(CC)c2ccc(OCC(=O)C(C)(C)C)c(C)c2)n1CC`, `CCN(CC)CCCNC(=O)c1ccc(C(CC)(CC)c2ccc(OCC(=O)C(C)(C)C)c(C)c2)n1CC` is 0.62 log units higher in pEC50: 7.04 for the first, 7.66 for the second.

`CCn1c(C(=O)NCC(OC)OC)ccc1C(CC)(CC)c1ccc(OCC(=O)C(C)(C)C)c(C)c1` and `CCn1c(C(=O)NCC(OC)OC)ccc1C(CC)(CC)c1ccc(OCC(O)C(C)(C)C)c(C)c1` (stereo unspecified) are within 0.2 log units of each other in pEC50: 6.89 for the first, 6.82 for the second.

`CCn1c(C(=O)NCCN(C)C)ccc1C(CC)(CC)c1ccc(OCC(=O)C(C)(C)C)c(C)c1` and `CCn1c(C(=O)NCCCN(C)C)ccc1C(CC)(CC)c1ccc(OCC(=O)C(C)(C)C)c(C)c1` are within 0.2 log units of each other in pEC50: 7.11 for the first, 7.02 for the second.

`C#CC(C)OC(=O)c1ccc(C(CC)(CC)c2ccc(OCC(O)C(C)(C)C)c(C)c2)n1CC` (stereo unspecified) and `C#CC(C)OC(=O)c1ccc(C(CC)(CC)c2ccc(OCC(=O)C(C)(C)C)c(C)c2)n1CC` (stereo unspecified) are within 0.2 log units of each other in pEC50: 6.70 for the first, 6.68 for the second.

Going from `CCn1c(C(=O)NCCCN2CCOCC2)ccc1C(CC)(CC)c1ccc(OCC(=O)C(C)(C)C)c(C)c1` to `CCn1c(C(=O)NCCCN2CCOCC2)ccc1C(CC)(CC)c1ccc(OCC(O)C(C)(C)C)c(C)c1` (stereo unspecified), the pEC50 rises from 6.62 to 7.74 (1.12 log units). The second is the more potent here.

`CCn1c(C(=O)Nc2cccc(C(F)(F)F)c2)ccc1C(CC)(CC)c1ccc(OCC(O)C(C)(C)C)c(C)c1` (stereo unspecified) and `CCn1c(C(=O)Nc2cccc(C(F)(F)F)c2)ccc1C(CC)(CC)c1ccc(OCC(=O)C(C)(C)C)c(C)c1` cannot be ordered by pEC50: less than 4.30 for the first, less than 4.30 for the second.

Compared with `CC[C@@H](C)[C@H](NC(=O)c1ccc(C(CC)(CC)c2ccc(OCC(=O)C(C)(C)C)c(C)c2)n1CC)C(=O)OC`, `CC[C@@H](C)[C@H](NC(=O)c1ccc(C(CC)(CC)c2ccc(OCC(=O)C(C)(C)C)c(C)c2)n1CC)C(=O)O` is 1.77 log units higher in pEC50: 6.23 for the first, 8.00 for the second. The second is the more potent here.
